Where two headings read alike, the source gives them in different places.

Holding throughout (format): in vivo, male Sprague-Dawley rats
One data set relates to rat. In words: Toxicity: dose at which first cardiotoxic or neurotoxic symptoms occur, rat, oral administration. Here is the method: (§1) To investigate the antiarrhythmic activity, the substances were administered orally to male Sprague-Dawley rats each weighing 200-250 g. 45 minutes later, the animals were anesthetized with sodium thiobutabarbital (100 mg/kg, administered intraperitoneally). Aconitine was used as the arrhythmogenic substance, and was infused intravenously 60 minutes after administration of the substance (dosage rate: 0.005 mg per kg per min.). […] The onset of these arrhythmias could be delayed by means of antiarrhythmics, the delay achieved being dose-dependent.
(§2) For further characterization of the substances, the dose at which the first cardiotoxic symptoms (changes in the initial ECG) or neurotoxic symptoms (coordination disturbances, convulsions, etc.) occurred was determined from the decimal-geometric dosage progression (factor .cuberoot.10) used in the experiments.

Assay in data set [1]: as above
The following applies: in vivo. Here is the method:
as §1, §2

Data set [2] deals with aconitine-induced arrhythmia. In words: Aconitine-induced arrhythmia in rats, oral administration (antiarrhythmic activity). The following applies: for ED50: Rattus norvegicus, po, 1 h, read-out: Aconitine-induced arrhythmia ED 50% (dose which prolongs the aconitine infusion duration by 50%); for R.A. (relative activity, based on quinidine = 1.00) / times more effective than quinidine on aconitine-induced arrhythmia: rat, oral; for R.A. (relative activity, based on quinidine = 1.00): aconitine-induced arrhythmia; for antiarrhythmic action (in words): general statement. The protocol: as §1
Linear relationships exist between the logarithms of the doses (mg/kg) of the test substances and the relative prolongation of the aconitine infusion duration (Δ%), from which relationships the dose which prolongs the infusion duration by 50% can be determined, as the ED 50%.
The known antiarrhythmic quinidine was used as a comparative substance.

`CCCCNCCCC1c2[nH]c3ccccc3c2CCN1C(C)=O` (stereo not drawn) [Example 28, 1-(3'-n-Butylaminopropyl)-2-acetyl-1,2,3,4-tetrahydro-β-carboline]: the “Toxicity Dose (dose after the application of which the first toxic symptoms are observed)” value (from here on “Toxicity Dose”) in the data set on rat (in vivo, po) turned out to be 215 mg/kg. The selectivity ratio in data set [1] (po) was 17. Moreover, in data set [2], the ED50 amounted to 12.4 mg/kg and the “R.A. (relative activity, based on quinidine = 1.00)” value was found to be 3.51.
Regarding `CC(=O)N1CCc2c([nH]c3ccccc23)C1CCCN(C)C` (stereo not drawn) [Example 4, 1-(3'-Dimethylaminopropyl)-2-acetyl-1,2,3,4-tetrahydro-β-carboline], in the data set on rat (in vivo, po), the “Toxicity Dose” value was found to be 215 mg/kg. Further, the selectivity ratio in data set [1] (po) came out at 16. Moreover, in data set [2], the ED50 was determined as 13.5 mg/kg; the “times more effective than quinidine on aconitine-induced arrhythmia” value (“times more effective than quinidine” below) was found to be 3 times; the “R.A. (relative activity, based on quinidine = 1.00)” value worked out at 3.22.
Take `C=C[C@H]1C[N@@]2CC[C@H]1C[C@@H]2[C@@H](O)c1ccnc2ccc(OC)cc12` [quinidine, reference compound]: in data set [2], the ED50 is 43.5 mg/kg.
As for `CCn1c2c(c3ccccc31)CCN(C(C)=O)C2CCCN1CCN(C)CC1` (stereo not drawn) [Example 44, 1-[3'-(4-Methylpiperazin-1-yl)-propyl]-2-acetyl-9-ethyl-1,2,3,4-tetrahydro-β-carboline], in the data set on rat (in vivo, po), the “Toxicity Dose” value was found to be 215 mg/kg. Moreover, the selectivity ratio in data set [1] (po) came out at 23. In data set [2], the ED50 was determined as 9.21 mg/kg and the “R.A. (relative activity, based on quinidine = 1.00)” value amounted to 4.72.
As to `CC(=O)N1CCc2c([nH]c3ccccc23)C1CCCN1CCN(C)CC1` (stereo not drawn) [Example 21, 1-[3'-(4-Methylpiperazin-1-yl)-propyl]-2-acetyl-1,2,3,4-tetrahydro-β-carboline], the “Toxicity Dose” value in the data set on rat (in vivo, po) is reported as 215 mg/kg. In addition, the selectivity ratio in data set [1] (po) came to 15. Moreover, in data set [2], the ED50 was determined as 14.6 mg/kg; the “times more effective than quinidine” value was determined as 3 times; the “R.A. (relative activity, based on quinidine = 1.00)” value is 2.98.
For `CCCN(CCC)CCCC1c2c(c3ccccc3n2C)CCN1C(C)=O` (stereo not drawn) [Example 42, 1-(3'-Dipropylaminopropyl)-2-acetyl-9-methyl-1,2,3,4-tetrahydro-β-carboline], in the data set with rat (in vivo, po), the “Toxicity Dose” value was 10 mg/kg. Also, in data set [1] (po), the selectivity ratio was 12. Besides, in data set [2], the ED50 came out at 0.842 mg/kg; the “antiarrhythmic action (in words)” value is “particularly active”; the “R.A. (relative activity, based on quinidine = 1.00)” value is reported as 51.66.
For `CCCN(CCCC1c2c(c3ccccc3n2C)CCN1C(C)=O)C(C)C` (stereo not drawn) [Example 46, 1-[3'-(Isopropylpropyl)-aminopropyl]-2-acetyl-9-methyl-1,2,3,4-tetrahydro-β-carboline], the “Toxicity Dose” value with rat (oral, cardiotoxic or neurotoxic symptoms) stood at 4.64 mg/kg. Besides, the selectivity ratio in data set [1] (oral, measure of the therapeutic index, read-out: Toxicity Q (quotient of the toxic dose and the antiarrhythmically effective dose, ED 50%)) is 14. Besides, in data set [2], the ED50 turned out to be 0.732 mg/kg; the “times more effective than quinidine” value is given as 59 times; the “R.A. (relative activity, based on quinidine = 1.00)” value was found to be 59.43.
For `CCC(C)N(CCCC1c2[nH]c3ccccc3c2CCN1C(C)=O)C(C)CC` (stereo not drawn) [Example 33, 1-[3'-(Di-2-butyl)-aminopropyl]-2-acetyl-1,2,3,4-tetrahydro-β-carboline], in the data set with rat (in vivo, po), the “Toxicity Dose” value came out at 21.5 mg/kg. Besides, the selectivity ratio in data set [1] (po) was determined as 14. Moreover, in data set [2], the ED50 amounted to 1.57 mg/kg and the “R.A. (relative activity, based on quinidine = 1.00)” value is given as 27.71.
As to `CC(=O)N1CCc2c(n(C)c3ccccc23)C1CCCN(CC(C)C)CC(C)C` (stereo not drawn) [Example 43, 1-[3'-(Di-2-methylpropyl)-aminopropyl]-2-acetyl-9-methyl-1,2,3,4-tetrahydro-β-carboline], in the data set on rat (in vivo, po), the “Toxicity Dose” value is recorded as 10 mg/kg. Moreover, in data set [1] (po), the selectivity ratio was 13. Besides, in data set [2], the ED50 was 0.803 mg/kg; the “antiarrhythmic action (in words)” value is “particularly active”; the “R.A. (relative activity, based on quinidine = 1.00)” value amounted to 54.17.
On to `CCCCN(CCCC)CCCC1c2[nH]c3ccccc3c2CCN1C(C)=O` (stereo not drawn) [Example 31, 1-[3'-(Di-n-butyl)-aminopropyl]-2-acetyl-1,2,3,4-tetrahydro-β-carboline], for which the “Toxicity Dose” value in the data set on rat (in vivo, po) came out at 21.5 mg/kg. The selectivity ratio in data set [1] (po) turned out to be 13. Moreover, in data set [2], the ED50 amounted to 1.71 mg/kg and the “R.A. (relative activity, based on quinidine = 1.00)” value is given as 25.44.

The values are drawn from patent publication US4575508A, “2-Substituted 1-(3'-aminoalkyl)-1,2,3,4-tetrahydro-β-carbolines, and their use as antiarrhythmic agents” (BASF Aktiengesellschaft, priority 1982, dated 1986).
